Values of other authors in patent US10709686B2, “Methods for treating pulmonary fibrosis” (David Weinstein Consulting, Inc., priority 2018, dated 2020).

Tests used:
FKBP52 = target: T1, FKBP52 (Homo sapiens, UniProt Q02790); details: treatment of fibroblasts for 2 hours
T1 construct: endogenous in cells
T1 sequence (Q02790 1-459): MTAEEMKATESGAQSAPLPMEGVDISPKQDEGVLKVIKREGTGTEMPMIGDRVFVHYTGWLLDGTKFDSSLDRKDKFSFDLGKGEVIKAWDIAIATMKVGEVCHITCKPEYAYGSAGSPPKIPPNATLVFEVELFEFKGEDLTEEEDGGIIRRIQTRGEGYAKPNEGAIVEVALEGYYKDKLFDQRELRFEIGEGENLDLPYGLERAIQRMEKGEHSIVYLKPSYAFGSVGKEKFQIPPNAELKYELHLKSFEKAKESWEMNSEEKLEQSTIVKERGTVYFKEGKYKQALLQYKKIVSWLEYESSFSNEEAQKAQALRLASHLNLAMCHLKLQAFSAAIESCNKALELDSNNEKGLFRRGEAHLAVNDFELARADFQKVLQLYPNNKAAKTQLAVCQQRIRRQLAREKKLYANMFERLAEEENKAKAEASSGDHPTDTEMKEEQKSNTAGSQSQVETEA

[1] = target: T2, FK506 binding protein 4 (FKBP52) (Homo sapiens, UniProt Q02790)
T2 sequence (Q02790 1-459): T1 sequence (Q02790 1-459)

CCC(C)(C)C(=O)C(=O)N1CCC[C@H]1C(=O)O [RT175]
Translocation of FKBP52 to the nucleus (FKBP52): results in the translocation of FKBP52 to the nucleus
Binding affinity to FKBP52 [1]: binds with high affinity
